Results published in paper doi:10.1101/2024.08.19.608619, “Discovery of potent SARS-CoV-2 nsp3 macrodomain inhibitors uncovers lack of translation to cellular antiviral response” (bioRxiv, 2024).
Read-outs that look alike come from different tables or passages of the source.

Experiments:
DRAK1(h) = molecular target: T1, DRAK1(h) (Homo sapiens, UniProt Q9UEE5); assay: biochemical; parameters: In vitro kinase panel profiling, per cent remaining kinase activity at 10 uM; conditions: atp_concentration=10, read-out: % of control remaining
T1 construct: gene STK17A
T1 sequence (Q9UEE5 1-414): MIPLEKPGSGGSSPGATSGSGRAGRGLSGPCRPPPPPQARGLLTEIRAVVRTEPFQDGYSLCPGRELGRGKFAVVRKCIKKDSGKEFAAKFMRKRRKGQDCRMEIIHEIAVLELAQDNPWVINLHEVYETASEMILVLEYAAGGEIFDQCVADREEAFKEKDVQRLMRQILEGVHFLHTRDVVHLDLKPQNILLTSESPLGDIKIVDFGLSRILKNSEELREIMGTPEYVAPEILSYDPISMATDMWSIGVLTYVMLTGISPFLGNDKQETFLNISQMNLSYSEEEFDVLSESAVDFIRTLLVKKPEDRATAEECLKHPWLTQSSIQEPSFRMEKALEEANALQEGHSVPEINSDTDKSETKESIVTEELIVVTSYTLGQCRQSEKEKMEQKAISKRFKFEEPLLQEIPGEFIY
Excerpt: (§1) We derisk potential for off-target activity by profiling the compound in a CEREP panel, a standard secondary pharmacology assessment, as well as a kinase panel to derisk a potential hinge-binding motif in our leads, and a PARP panel to derisk activity against human […]. Reassuringly, the compounds are selective, with the only off-targets being moderate human CHRM2 and KOR receptors activity associated with ASAP-0011198.

MAPKAP-K2(h) = molecular target: T2, MAPKAP-K2(h) (Homo sapiens, UniProt P49137); assay: biochemical; parameters: In vitro kinase panel profiling, per cent remaining kinase activity at 10 uM; conditions: atp_concentration=90, read-out: % of control remaining
T2 construct: gene MAPKAPK2
Excerpt: as §1

A2A (h) = molecular target: T3, A2A (h) (Homo sapiens, UniProt P29274); assay: In vitro CEREP profiling, A2A (h) (agonist radioligand); format: binding; conditions: test compound 10 uM
T3 construct: purchased Eurofins Cerep (SafetyScreen44), recognised from the panel format
Excerpt: (§2) Supplement media-1.zip/Safety_Panel_Profile.csv, table | column: perc_inhibition

GR (h) = molecular target: T4, GR (h) (Homo sapiens, UniProt P04150); assay: In vitro CEREP profiling, GR (h) (agonist radioligand); format: binding; conditions: test compound concentration 10 uM
T4 construct: purchased Eurofins Cerep (SafetyScreen44), recognised from the panel format
T4 sequence (P04150 1-777): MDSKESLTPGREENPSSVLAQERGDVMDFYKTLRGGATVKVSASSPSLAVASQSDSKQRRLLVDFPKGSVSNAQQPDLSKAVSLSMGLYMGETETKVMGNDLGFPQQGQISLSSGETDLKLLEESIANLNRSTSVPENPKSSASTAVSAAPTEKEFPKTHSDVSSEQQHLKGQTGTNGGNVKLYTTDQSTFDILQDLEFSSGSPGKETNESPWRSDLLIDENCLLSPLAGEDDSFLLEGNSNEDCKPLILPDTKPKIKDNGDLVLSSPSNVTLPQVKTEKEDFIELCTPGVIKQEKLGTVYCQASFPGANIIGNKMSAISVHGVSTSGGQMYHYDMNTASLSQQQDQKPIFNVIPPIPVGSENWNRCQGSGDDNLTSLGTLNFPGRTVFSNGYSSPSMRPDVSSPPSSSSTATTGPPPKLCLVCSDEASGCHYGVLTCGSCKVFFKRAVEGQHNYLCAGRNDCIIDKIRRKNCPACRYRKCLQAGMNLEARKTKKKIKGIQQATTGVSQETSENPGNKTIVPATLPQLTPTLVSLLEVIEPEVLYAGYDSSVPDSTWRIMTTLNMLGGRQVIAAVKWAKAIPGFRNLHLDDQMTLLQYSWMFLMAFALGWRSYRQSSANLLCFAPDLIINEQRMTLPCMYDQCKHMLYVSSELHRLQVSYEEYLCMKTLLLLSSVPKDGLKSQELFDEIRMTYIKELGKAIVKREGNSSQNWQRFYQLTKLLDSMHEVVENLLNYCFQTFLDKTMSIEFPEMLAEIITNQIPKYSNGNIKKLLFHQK
Excerpt: as §2

5-HT2B (h) = molecular target: T5, 5-HT2B (h) (Homo sapiens, UniProt P41595); assay: In vitro CEREP profiling, 5-HT2B (h) (agonist radioligand); format: binding; conditions: test compound concentration 10 uM
T5 construct: purchased Eurofins Cerep (SafetyScreen44), recognised from the panel format
Excerpt: as §2

5-HT1B (h) = molecular target: T6, 5-HT1B (h) (Homo sapiens, UniProt P28222); assay: In vitro CEREP profiling, 5-HT1B (h) (antagonist radioligand); format: binding; conditions: test compound concentration 10 uM
T6 construct: purchased Eurofins Cerep (SafetyScreen44), recognised from the panel format
Excerpt: as §2

M1 (h) = molecular target: T7, M1 (h) (Homo sapiens, UniProt P11229); assay: In vitro CEREP profiling, M1 (h) (antagonist radioligand); format: binding; conditions: test compound concentration 10 uM
T7 construct: purchased Eurofins Cerep (SafetyScreen44), recognised from the panel format
T7 sequence (P11229 1-460): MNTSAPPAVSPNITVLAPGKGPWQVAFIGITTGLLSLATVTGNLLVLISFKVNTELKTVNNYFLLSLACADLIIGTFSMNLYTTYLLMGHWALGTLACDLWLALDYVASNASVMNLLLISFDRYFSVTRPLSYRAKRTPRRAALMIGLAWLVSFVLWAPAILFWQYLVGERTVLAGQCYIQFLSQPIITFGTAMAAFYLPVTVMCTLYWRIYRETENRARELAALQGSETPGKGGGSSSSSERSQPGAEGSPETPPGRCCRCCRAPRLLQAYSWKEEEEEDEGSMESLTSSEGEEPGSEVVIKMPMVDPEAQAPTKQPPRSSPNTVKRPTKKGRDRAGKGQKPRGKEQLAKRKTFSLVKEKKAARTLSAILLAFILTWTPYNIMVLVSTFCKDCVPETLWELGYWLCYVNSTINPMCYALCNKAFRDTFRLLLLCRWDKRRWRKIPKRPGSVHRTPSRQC
Excerpt: as §2

human CHRM2 (M2) = molecular target: T8, human CHRM2 (M2) (Homo sapiens, UniProt P08172); assay: Eurofins CEREP panel, M2; format: binding; conditions: M2 (h) (antagonist radioligand); test compound concentration 10 uM
T8 construct: purchased Eurofins Cerep (SafetyScreen44), recognised from the panel format
T8 sequence (P08172 1-466): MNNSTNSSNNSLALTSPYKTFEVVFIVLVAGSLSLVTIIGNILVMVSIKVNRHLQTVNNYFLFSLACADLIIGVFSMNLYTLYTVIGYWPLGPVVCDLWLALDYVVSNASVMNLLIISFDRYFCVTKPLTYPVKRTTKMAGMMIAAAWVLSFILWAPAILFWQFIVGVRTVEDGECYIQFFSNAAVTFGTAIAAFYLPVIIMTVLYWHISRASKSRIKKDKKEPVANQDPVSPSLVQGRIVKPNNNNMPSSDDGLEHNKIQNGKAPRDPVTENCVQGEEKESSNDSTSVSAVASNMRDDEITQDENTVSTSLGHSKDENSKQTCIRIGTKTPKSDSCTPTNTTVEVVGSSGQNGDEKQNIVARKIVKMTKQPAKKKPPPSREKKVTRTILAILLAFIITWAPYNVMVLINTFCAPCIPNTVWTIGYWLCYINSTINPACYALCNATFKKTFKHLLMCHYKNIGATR

T2 sequence (P49137 whole entry): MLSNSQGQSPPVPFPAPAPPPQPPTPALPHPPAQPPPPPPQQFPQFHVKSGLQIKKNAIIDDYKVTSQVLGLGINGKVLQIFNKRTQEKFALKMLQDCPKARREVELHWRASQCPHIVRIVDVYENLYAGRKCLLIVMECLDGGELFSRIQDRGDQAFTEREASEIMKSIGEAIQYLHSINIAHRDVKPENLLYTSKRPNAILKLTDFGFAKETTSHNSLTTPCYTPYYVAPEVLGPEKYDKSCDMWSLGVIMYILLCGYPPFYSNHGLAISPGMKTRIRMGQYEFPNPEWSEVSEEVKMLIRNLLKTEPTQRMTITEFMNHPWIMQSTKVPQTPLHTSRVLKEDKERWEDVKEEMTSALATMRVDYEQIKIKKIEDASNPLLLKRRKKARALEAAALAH
T6 sequence (P28222 whole entry): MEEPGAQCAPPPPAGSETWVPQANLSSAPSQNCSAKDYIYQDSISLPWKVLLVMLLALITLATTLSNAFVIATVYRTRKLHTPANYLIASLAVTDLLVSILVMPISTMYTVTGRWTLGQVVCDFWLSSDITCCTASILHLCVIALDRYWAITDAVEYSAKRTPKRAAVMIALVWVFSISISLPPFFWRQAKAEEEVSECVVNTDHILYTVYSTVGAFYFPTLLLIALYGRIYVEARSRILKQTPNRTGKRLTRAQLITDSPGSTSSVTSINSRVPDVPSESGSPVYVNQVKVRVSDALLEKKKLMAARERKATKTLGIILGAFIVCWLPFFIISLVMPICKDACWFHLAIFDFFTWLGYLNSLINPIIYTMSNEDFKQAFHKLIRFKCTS
T3 sequence (P29274 whole entry): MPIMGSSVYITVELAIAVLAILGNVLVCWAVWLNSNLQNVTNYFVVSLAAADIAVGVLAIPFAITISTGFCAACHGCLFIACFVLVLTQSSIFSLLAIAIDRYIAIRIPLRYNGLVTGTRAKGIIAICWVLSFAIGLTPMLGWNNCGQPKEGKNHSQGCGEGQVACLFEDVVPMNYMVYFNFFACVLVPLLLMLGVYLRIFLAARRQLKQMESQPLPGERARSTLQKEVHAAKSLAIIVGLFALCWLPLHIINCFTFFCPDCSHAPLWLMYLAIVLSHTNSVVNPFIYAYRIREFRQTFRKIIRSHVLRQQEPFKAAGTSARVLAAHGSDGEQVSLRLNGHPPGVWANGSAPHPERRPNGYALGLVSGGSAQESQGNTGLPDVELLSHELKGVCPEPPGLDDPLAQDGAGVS
T5 sequence (P41595 whole entry): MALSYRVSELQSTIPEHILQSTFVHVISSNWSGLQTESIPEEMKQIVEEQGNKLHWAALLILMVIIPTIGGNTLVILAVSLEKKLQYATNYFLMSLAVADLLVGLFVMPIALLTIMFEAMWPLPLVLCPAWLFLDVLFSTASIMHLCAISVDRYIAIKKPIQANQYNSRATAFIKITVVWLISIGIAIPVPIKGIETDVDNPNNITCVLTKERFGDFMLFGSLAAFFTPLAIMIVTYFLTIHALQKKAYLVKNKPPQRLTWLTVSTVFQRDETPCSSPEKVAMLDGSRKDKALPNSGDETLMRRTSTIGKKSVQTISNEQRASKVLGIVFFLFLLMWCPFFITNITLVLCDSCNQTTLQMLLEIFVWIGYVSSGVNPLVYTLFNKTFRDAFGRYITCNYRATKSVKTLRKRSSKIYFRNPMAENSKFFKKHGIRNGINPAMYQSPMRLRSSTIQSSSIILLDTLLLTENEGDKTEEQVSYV

Structure (SMILES)	perc_inhibition (% inhibition of the binding of a ligand specific for each target) (A2A (h))	perc_inhibition (% inhibition of the binding of a ligand specific for each target) (GR (h))	perc_inhibition (% inhibition of the binding of a ligand specific for each target) (5-HT2B (h))	perc_inhibition (% inhibition of the binding of a ligand specific for each target) (5-HT1B (h))	perc_inhibition (% inhibition of the binding of a ligand specific for each target) (M1 (h))	perc_inhibition (% inhibition of the binding of a ligand specific for each target) (human CHRM2 (M2))	also measured
CC(C)C(Nc1ncnc2[nH]ccc12)c1ccc2c(c1)S(=O)(=O)CCC2 (stereo not drawn) [ASAP-0008327]							remaining activity at 10 µM (DRAK1(h); batch_name=ASAP-0008327-001): 96%; remaining activity at 10 µM (MAPKAP-K2(h); batch_name=ASAP-0008327-001): 105%
COc1ccc([C@@H](Cc2nnn[nH]2)NC(=O)c2ncnc3[nH]ccc23)cc1 [ASAP-0008340]							remaining activity at 10 µM (DRAK1(h); batch_name=ASAP-0008340-001): 111%; remaining activity at 10 µM (MAPKAP-K2(h); batch_name=ASAP-0008340-001): 92%
CC(C)[C@@H](Nc1ncnc2[nH]c(-c3cnn(C)c3C#N)cc12)c1ccc2c(n1)OCCO2 [ASAP-0008418]							remaining activity at 10 µM (DRAK1(h); batch_name=ASAP-0008418-001): 101%
CC(C)[C@H](Nc1ncnc2[nH]ccc12)c1ccc2c(c1)S(=O)(=O)CCC2 [ASAP-0008674]	11%	10%	54%	0%	19%	34%	remaining activity at 10 µM (DRAK1(h); batch_name=ASAP-0008674-002): 117%; remaining activity at 10 µM (MAPKAP-K2(h); batch_name=ASAP-0008674-002): 106%
CC(C)[C@H](Nc1ncnc2[nH]c(-c3cnn(C)c3C#N)cc12)c1ccc2c(n1)OCCO2 [ASAP-0010715]	84%	11%	18%	-11%	7%	18%	remaining activity at 10 µM (DRAK1(h); batch_name=ASAP-0010715-002): 105%; remaining activity at 10 µM (MAPKAP-K2(h); batch_name=ASAP-0010715-002): 115%
